# Measured values taken from PMC9498296, “Inhibitory Activity of Quaternary Isoquinoline Alkaloids on Soluble Epoxide Hydrolase” (Current Issues in Molecular Biology, 2022).
# Key:
# [1] = molecular target: T1, soluble epoxide hydrolase (sEH) (Homo sapiens, UniProt P34913); assay: Enzyme kinetics of sEH inhibition (Lineweaver–Burk and Dixon plots); type: biochemical; conditions: for Binding Mode: Lineweaver–Burk plots, PHOME substrate; for Ki: Table 1, Dixon plots, read-out: Binding Mode (ki, M): ki
# T1 construct: purchased Cayman Chemical (Ann Arbor, MI, USA) 10011669
# T1 sequence (P34913 1-555): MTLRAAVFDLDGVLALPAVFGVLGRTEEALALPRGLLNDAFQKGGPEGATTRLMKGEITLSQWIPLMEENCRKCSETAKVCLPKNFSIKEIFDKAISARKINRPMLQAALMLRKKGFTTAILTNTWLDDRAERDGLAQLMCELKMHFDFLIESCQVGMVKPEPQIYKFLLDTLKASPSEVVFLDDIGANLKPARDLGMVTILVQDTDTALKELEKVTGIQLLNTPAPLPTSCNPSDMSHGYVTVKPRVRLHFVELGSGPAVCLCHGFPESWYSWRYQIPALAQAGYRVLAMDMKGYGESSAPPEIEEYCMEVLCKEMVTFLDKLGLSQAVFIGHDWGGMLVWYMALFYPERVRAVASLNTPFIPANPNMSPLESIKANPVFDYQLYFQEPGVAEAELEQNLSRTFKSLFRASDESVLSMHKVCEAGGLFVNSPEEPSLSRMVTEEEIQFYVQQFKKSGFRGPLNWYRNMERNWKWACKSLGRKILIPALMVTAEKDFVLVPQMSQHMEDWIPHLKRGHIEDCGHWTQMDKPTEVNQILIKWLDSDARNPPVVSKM
# Description: Additionally, an enzyme kinetic study was performed to identify how the three compounds bound to this enzyme. The initial velocity (v0) of inhibitor was determined as the rate of enzymatic conversion from substrate to product depending on the concentration of inhibitor at the start of the enzymatic reaction. The results were visualized using classic double-reciprocal Lineweaver–Burk plots. Figure 2B–D indicates one 1/Km and four 1/Vmax values for the three inhibitors, which inhibited the catalytic reaction of sEH with PHOME in a noncompetitive manner.
# [2] = molecular target: T1, soluble epoxide hydrolase (sEH); assay: sEH enzymatic assay (fluorometric, PHOME substrate); type: biochemical; conditions: 37 °C, pH 7.0, tested three times, read-out: Inhibition of Compounds on sEH IC50
# Description: The sEH assay was performed as described previously, with minor modifications. To determine inhibitory activity, 130 μL of the sEH in 25 mM bis-Tris-HCl buffer (pH 7.0) containing 0.1% BSA was added to either 20 μL of inhibitor dissolved in MeOH. Next, 20 μL of PHOME was mixed to each mixture, which was then reacted at 37 °C for sEH hydrolysis. Product formation was monitored fluorometrically at 330 nm excitation and 465 nm emission for approximately 60 min.
# sEH inhibition activity was calculated using sEH Inhibition rate (%) = [(ΔC − ΔI)/ΔC] × 100(1) where ΔC and ΔI are the difference of the solvent and compound intensities, respectively, after about one hour and y = y0 + (a × x/b + x)(2) where y0 is the minimum value along the y-axis, a is the difference between the maximum and minimum values, and b is the x value at 50 percent of the “a” value.
Binding Mode [1],Ki [1] [M],IC50 [2] [µM],Compound
Non-competitive,2.69e-05,29.6 ± 0.5,"COc1cc2c(cc1OC)-c1cc3ccc(OC)c(OC)c3c[n+]1CC2 [Compound 1, palmatine]"
Non-competitive,4.68e-05,33.4 ± 0.8,"COc1ccc2cc3[n+](cc2c1OC)CCc1cc2c(cc1-3)OCO2 [Compound 2, berberine]"

Compound,Binding Mode [1],Ki [1] [M],IC50 [2] [µM]
"COc1cc2c(cc1O)CC[n+]1cc3c(OC)c(OC)ccc3cc1-2 [Compound 3, jatrorrhizine]",Non-competitive,4.45e-05,27.3 ± 0.4
